How the values were obtained:
Type in all cases: in vivo
Matricaria inodora = assay: Pre-emergence herbicidal action; settings: 1280 g/ha, scored visually after about 3 weeks vs untreated controls
Excerpt: (§1) Pre-Emergence Herbicidal Action and Crop Plant Compatibility Seeds of monocotyledonous and dicotyledonous weed plants and crop plants were placed in plastic or wood fiber pots and covered with soil. The compounds of the invention, formulated in the form of wettable powders (WP) or as emulsion concentrates (EC), were then applied onto the surface of the covering soil as aqueous suspension or emulsion with addition of 0.5% additive at a water application rate of 600 l/ha (converted). After the treatment, the pots were placed in a greenhouse and kept under good growth conditions for the test plants. After about 3 weeks, the effect of the preparations was scored visually in comparison with untreated controls as percentages. For example, 100% activity=the plants have died, 0% activity=like control plants. Tables C1 to C14 below show the effects of selected compounds of the general formula (I) according to Table I on various harmful plants and an application rate corresponding to 1280 g/ha, which were obtained by the experimental procedure mentioned above.

Amaranthus retroflexus [1] = assay: Pre-emergence herbicidal action; settings: 1280 g/ha, scored visually after about 3 weeks vs untreated controls
Excerpt: as §1

Veronica persica [2] = assay: Pre-emergence herbicidal action; settings: 1280 g/ha, scored visually after about 3 weeks vs untreated controls
Excerpt: as §1

Polygonum convolvulus [3] = assay: Post-emergence herbicidal action; settings: 1280 g/ha, rated visually after about 3 weeks vs untreated controls
Procedure: (§2) A. Post-Emergence Herbicidal Action and Crop Plant Compatibility Seeds of monocotyledonous and dicotyledonous weeds and crop plants were placed in sandy loam in plastic or wood-fiber pots, covered with soil and cultivated in a greenhouse under controlled growth conditions. 2 to 3 weeks after sowing, the test plants were treated at the one-leaf stage. The compounds of the invention, formulated in the form of wettable powders (WP) or as emulsion concentrates (EC), were then sprayed onto the green parts of the plants as aqueous suspension or emulsion with addition of 0.5% additive at a water application rate of 600 l/ha (converted). After the test plants had been kept in the greenhouse under optimum growth conditions for about 3 weeks, the activity of the preparations was rated visually in comparison to untreated controls. For example, 100% activity=the plants have died, 0% activity=like control plants. Tables B1 to B15 below show the effects of selected compounds of the general formula (I) according to Table I on various harmful plants and an application rate corresponding to 1280 g/ha, which were obtained by the experimental procedure mentioned above.

Amaranthus retroflexus [4] = assay: Post-emergence herbicidal action; settings: 1280 g/ha, rated visually after about 3 weeks vs untreated controls
Procedure: as §2

Veronica persica [5] = assay: Post-emergence herbicidal action; settings: 1280 g/ha, rated visually after about 3 weeks vs untreated controls
Procedure: as §2

Stellaria media [6] = assay: Post-emergence herbicidal action; settings: 1280 g/ha, rated visually after about 3 weeks vs untreated controls
Procedure: as §2

Viola tricolor [7] = assay: Pre-emergence herbicidal action; settings: 1280 g/ha, scored visually after about 3 weeks vs untreated controls
Excerpt: as §1

Stellaria media [8] = assay: Pre-emergence herbicidal action; settings: 1280 g/ha, scored visually after about 3 weeks vs untreated controls
Excerpt: as §1

Polygonum convolvulus [9] = assay: Pre-emergence herbicidal action; settings: 1280 g/ha, scored visually after about 3 weeks vs untreated controls
Excerpt: as §1

Echinochloa crus-galli [10] = assay: Pre-emergence herbicidal action; settings: 1280 g/ha, scored visually after about 3 weeks vs untreated controls
Excerpt: as §1

Alopecurus myosuroides [11] = assay: Pre-emergence herbicidal action; settings: 1280 g/ha, scored visually after about 3 weeks vs untreated controls
Excerpt: as §1

Setaria viridis [12] = assay: Pre-emergence herbicidal action; settings: 1280 g/ha, scored visually after about 3 weeks vs untreated controls
Excerpt: as §1

Abutilon theophrasti [13] = assay: Pre-emergence herbicidal action; settings: 1280 g/ha, scored visually after about 3 weeks vs untreated controls
Excerpt: as §1

Viola tricolor [14] = assay: Post-emergence herbicidal action; settings: 1280 g/ha, rated visually after about 3 weeks vs untreated controls
Procedure: as §2

Avena fatua = assay: Pre-emergence herbicidal action; settings: 1280 g/ha, scored visually after about 3 weeks vs untreated controls
Excerpt: as §1

Alopecurus myosuroides [15] = assay: Post-emergence herbicidal action; settings: 1280 g/ha, rated visually after about 3 weeks vs untreated controls
Procedure: as §2

Setaria viridis [16] = assay: Post-emergence herbicidal action; settings: 1280 g/ha, rated visually after about 3 weeks vs untreated controls
Procedure: as §2

Abutilon theophrasti [17] = assay: Post-emergence herbicidal action; settings: 1280 g/ha, rated visually after about 3 weeks vs untreated controls
Procedure: as §2

Pharbitis purpurea = assay: Post-emergence herbicidal action; settings: 1280 g/ha, rated visually after about 3 weeks vs untreated controls
Procedure: as §2

Hordeum murinum = assay: Pre-emergence herbicidal action; settings: 1280 g/ha, scored visually after about 3 weeks vs untreated controls
Excerpt: as §1

Echinochloa crus-galli [18] = assay: Post-emergence herbicidal action; settings: 1280 g/ha, rated visually after about 3 weeks vs untreated controls
Procedure: as §2

Lolium rigidum = assay: Pre-emergence herbicidal action; settings: 1280 g/ha, scored visually after about 3 weeks vs untreated controls
Excerpt: as §1

Structure (SMILES) | herbicidal activity on Matricaria inodora (Matricaria inodora) [%] | herbicidal activity on Amaranthus retroflexus (Amaranthus retroflexus [1]) [%] | herbicidal activity on Veronica persica (Veronica persica [2]) [%] | herbicidal activity on Polygonum convolvulus (Polygonum convolvulus [3]) [%] | herbicidal activity on Amaranthus retroflexus (Amaranthus retroflexus [4]) [%] | herbicidal activity on Veronica persica (Veronica persica [5]) [%] | herbicidal activity on Stellaria media (Stellaria media [6]) [%] | herbicidal activity on Viola tricolor (Viola tricolor [7]) [%] | herbicidal activity on Stellaria media (Stellaria media [8]) [%] | herbicidal activity on Polygonum convolvulus (Polygonum convolvulus [9]) [%] | herbicidal activity on Echinochloa crus-galli (Echinochloa crus-galli [10]) [%] | herbicidal activity on Alopecurus myosuroides (Alopecurus myosuroides [11]) [%] | herbicidal activity on Setaria viridis (Setaria viridis [12]) [%] | herbicidal activity on Abutilon theophrasti (Abutilon theophrasti [13]) [%] | herbicidal activity on Viola tricolor (Viola tricolor [14]) [%] | herbicidal activity on Avena fatua (Avena fatua) [%] | herbicidal activity on Alopecurus myosuroides (Alopecurus myosuroides [15]) [%] | herbicidal activity on Setaria viridis (Setaria viridis [16]) [%] | herbicidal activity on Abutilon theophrasti (Abutilon theophrasti [17]) [%] | herbicidal activity on Pharbitis purpurea (Pharbitis purpurea) [%] | further results
Cn1cc(Sc2ccc(F)cc2)c(Oc2ncccn2)n1 [Example I-032] | 90 | 80 | 90 | 90 | 90 | 90 | 100 |  |  |  |  |  |  |  |  |  |  |  |  |  | 
CCc1c(Sc2ccc(Cl)cc2)c(Oc2ncccn2)nn1C [Example I-058] |  | 100 |  |  | 80 | 90 | 100 | 80 | 90 |  |  |  |  |  |  |  |  |  |  |  | 
Cn1cc(Sc2ccccc2)c(Oc2ncccn2)n1 [Example I-067] | 100 | 100 | 100 | 90 |  | 100 | 90 | 100 | 90 | 90 | 90 | 90 | 100 | 90 | 80 |  |  |  |  |  | 
Cc1c(Sc2ccc(F)cc2)c(Oc2ncccn2)nn1C [Example I-087] | 90 | 100 | 100 | 100 | 100 | 100 | 100 | 100 |  | 90 | 80 |  | 100 | 100 | 100 | 80 | 90 | 90 | 80 | 80 | 
Cn1cc(Sc2ccccc2)c(Oc2ncc(Cl)cn2)n1 [Example I-120] |  | 80 | 100 | 100 | 80 | 80 | 90 | 100 | 100 | 80 | 100 | 90 |  | 100 | 100 |  | 90 | 80 |  |  | 
Fc1ccc(Sc2c(Oc3ncc(F)cn3)nn3c2CCOCC3)cc1 [Example I-122] | 100 | 100 | 100 | 100 |  | 90 | 90 | 100 | 100 | 100 | 100 | 100 | 100 | 100 | 90 | 80 | 90 | 100 | 100 | 90 | herbicidal activity on Hordeum murinum (Hordeum murinum): 90%; herbicidal activity on Echinochloa crus-galli (Echinochloa crus-galli [18]): 90%
CCc1c(Sc2ccc(F)cc2F)c(Oc2ncccn2)nn1C [Example I-136] | 100 | 100 |  |  | 100 | 100 | 90 | 100 | 100 | 100 | 90 | 100 | 100 | 100 | 100 | 90 |  |  | 90 |  | herbicidal activity on Lolium rigidum (Lolium rigidum): 100%
Cc1c(Sc2cccc(C(F)(F)F)c2)c(Oc2ncccn2)nn1C [Example I-142] |  | 90 | 90 |  | 90 | 80 |  | 100 | 90 | 100 |  | 80 | 100 |  |  |  |  |  | 80 |  | 
CCc1c(Sc2ccccc2)c(Oc2ncc(F)cn2)nn1C [Example I-155] | 100 | 100 |  |  | 100 | 100 | 90 | 100 | 100 |  | 90 | 100 | 100 | 100 | 100 | 100 | 90 | 80 | 80 | 80 | herbicidal activity on Hordeum murinum (Hordeum murinum): 100%; herbicidal activity on Lolium rigidum (Lolium rigidum): 80%
Fc1ccc(Sc2c(Oc3ncccn3)nn3c2CCOCC3)c(F)c1 [Example I-163] | 100 | 90 | 90 | 100 |  | 80 | 80 | 100 | 90 | 100 | 100 | 90 | 100 | 100 | 90 |  | 90 | 90 | 90 | 90 | herbicidal activity on Hordeum murinum (Hordeum murinum): 90%; herbicidal activity on Echinochloa crus-galli (Echinochloa crus-galli [18]): 90%

From patent US20200181117A1, “SUBSTITUTED 3-HETEROARYLOXY-1H-PYRAZOLES AND SALTS THEREOF AND THEIR USE AS HERBICIDAL ACTIVE SUBSTANCES” (BAYER CROPSCIENCE AKTIENGESELLSCHAFT, priority 2017, published 2020)
